Experimental data published in patent publication US20230242616A1, “CHEMOKINE-SELECTIVE CXCR4 ECTODOMAIN-DERIVED (POLY)PEPTIDE” (Ludwig-Maximilians-Universität München, priority 2020, published 2023).
One block for each compound: values may come before it.

Key:
[1] = system: primary human monocyte-derived macrophages; test: Dil-LDL uptake / foam cell formation, MIF-mediated; type: cell-based; conditions: 80 nM MIF
Experimental: Dil-LDL uptake/foam cell formation. […] After washing with imaging solution (MEM without phenol red containing 30 mM HEPES, 0.5 g/L NaHCO3, pH 7.4, and 0.2% BSA), cells were exposed to 50 μg/mL 1,1′-dioctadecyl-3,3,3′3′-tetra-methylindocarbocyanine-labeled LDL (Dil-LDL) for 30 min at 4° C. followed by incubation at 37° C. for 20 min. Cells were washed with ice-cold imaging solution (pH 3.5), fixed, and counter-stained with Hoechst 33258.

[2] = system: human monocyte-derived macrophages; conditions: from titration of the CXCR4 inhibitor
[3] = system: human monocyte-derived macrophages; test: cells; conditions: Macrophage, read-out: IC50 of MIF-triggered Dil-oxLDL uptake
CXCL12 = biological target: T1, CXCL12 (Homo sapiens, UniProt P48061); test: Dot blot titration with TAMRA-msR4M-L1, immobilized CXCL12; type: binding
T1 construct: purchased Peprotech (or a gift of Dr. von Hundelshausen, LMU Munich)
T1 sequence (P48061 22-93): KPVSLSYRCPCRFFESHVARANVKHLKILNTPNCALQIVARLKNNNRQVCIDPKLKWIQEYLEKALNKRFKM
Experimental: Dot blot. […] Non-specific binding was blocked with Tris-buffered saline (TBS), pH 7.4, containing 0.1% Tween-20 (TBS-T) and 1% BSA. […] Fluorescence intensities were measured at 600 nm using an Odyssey® Fc imager (LICOR Biosciences, Bad Homburg, Germany). The total intensity of each spot was automatically corrected by the individual background signal.

plaque-associated MIF = biological target: T2, plaque-associated MIF (Mus musculus, UniProt P34884); test: Staining of mouse atherosclerotic plaque sections with Fluos-msR4M-L1; conditions: Ldlr−/− aortic root, Apoe−/− brachiocephalic artery
T2 construct: from tissue; host or cells: aortic root (Ldlr-/-) and brachiocephalic artery (Apoe-/-) sections of atherogenic mice
Experimental: Staining of atherosclerotic plaque tissue with Fluos-msR4M-L1. Immunofluorescent staining of atherosclerotic tissue with Fluos-msR4M-L1 was performed with specimens from atherogenic Ldlr^−/− and Apoe^−/− mice. Ldlr^−/− mice were on chow diet for 30 weeks and developed native atherosclerotic lesions as reported previously^14. Mif-deficient mice (Ldlr^−/− Mif^−/−) were used for comparison. Aortic root sections were deparaffinized and rehydrated. For antigen retrieval, slides were boiled in sodium citrate buffer, pH 6.0, 0.05% Tween-20, and blocked with PBS, containing 5% donkey serum and 1% BSA. For staining, slides were incubated at 4° C. with Fluos-msR4M-L1 (5 μM) in blocking buffer. DAPI was used for nuclear counterstain and sections were imaged using a Leica DMI8 fluorescent microscope. The mean fluorescence intensity localized to the aortic vessel wall was quantified via Image J.
Sides were fixed in ice-cold acetone, rehydrated in PBS, and blocked in PBS/1% BSA, incubated with 500 nM Fluos-msR4M-L1, and analyzed as above.

atherogenic Apoe−/− mice = test: Localization of in-vivo-administered Fluos-msR4M-L1 (multiphoton microscopy); parameters: species or system mouse; conditions: three days before vessel preparation
[4] = system: human carotid atherosclerotic plaque sections; test: Staining of human carotid endarterectomy plaque sections with Fluos-msR4M-L1
Text: Patient population, study groups and tissue samples. Carotid artery tissue samples (n=28) came from the Munich Vascular Biobank (MVB) and were from patients who underwent carotid endarterectomy (CEA) in the Department of Vascular and Endovascular Surgery at University Hospital of Technische Universität München. Preparation of samples for histological and IHC analysis has been reported^40. […] Healthy FFPE carotid vessels were obtained from the Forensic Medicine Department (n=6). The type of atherosclerotic lesions in the CEA samples was determined according to the American Heart Association (AHA) guidelines using HE and Elastica-van-Gieson (EVG) staining procedures as described^40. […] The study was approved by the local ethical committee of the University Hospital and followed the Guidelines of the World Medical Association Declaration of Helsinki. All patients provided informed consent. Immunohistochemistry/immunofluorescence staining. Immunofluorescence staining of human CEA tissues with Fluos-msR4M-L1 was performed using the same protocol as for paraffin-embedded specimens from Ldlr^−/− mice (see above). […] HRP-conjugated polyclonal rabbit anti-goat immunoglobulin (DAKO, P0160, 1:1000) was used as secondary antibody. Slides were counterstained with Mayer hematoxylin and stainings analyzed with a Leica DMi8.

IC50 [3]: 48.9 nM
Compound: c1cc(CN2CCCNCCNCCCNCC2)ccc1CN1CCCNCCNCCCNCC1 [AMD3100, reference compound]
effect on MIF-mediated Dil-LDL uptake [1]: blocked
CXCR4-dependent part of MIF-triggered oxLDL uptake [2]: approximately 50%

binding to immobilized CXCL12 on dot blot (CXCL12): no binding to CXCL12
Compound: CC[C@H](C)[C@H](NC(=O)[C@H](Cc1ccc(O)cc1)NC(=O)[C@H](CCCNC(=N)N)NC(=O)[C@H](CC(=O)O)NC(=O)CCCCCCCCCCCNC(=O)CCCCCNC(=O)[C@H](CCCCN)NC(=O)[C@H](CS)NC(=O)[C@H](CC(C)C)NC(=O)[C@H](Cc1ccccc1)NC(=O)[C@H](CC(N)=O)NC(=O)CNC(=O)[C@H](Cc1ccccc1)NC(=O)[C@H](Cc1ccc(O)cc1)NC(=O)[C@H](Cc1c[nH]c2ccccc12)NC(=O)[C@H](CC(N)=O)NC(=O)[C@H](C)NC(=O)[C@@H](NC(=O)[C@H](C)NC(=O)[C@H](CC(=O)O)NC(=O)c1ccc2c(c1)C(=O)OC21c2ccc(N(C)C)cc2Oc2cc(N(C)C)ccc21)C(C)C)C(=O)N[C@@H](CS)C(=O)N[C@@H](CC(=O)O)C(=O)N[C@@H](CCCNC(=N)N)C(=O)N[C@@H](Cc1ccccc1)C(=O)N[C@@H](Cc1ccc(O)cc1)C(=O)N1CCC[C@H]1C(=O)N[C@@H](CC(N)=O)C(=O)N[C@@H](CC(=O)O)C(=O)N[C@@H](CC(C)C)C(=O)N[C@@H](Cc1c[nH]c2ccccc12)C(=O)N[C@H](C(N)=O)C(C)C [TAMRA-msR4M-L1, TAMRA-ECL1-6-Ahx-12-Ado-ECL2]

Compound: Fluos-ECL1-6-Ahx-12-Ado-ECL2 (DAVANWYFGNFLCKDRYICDRFYPNDLWV; non-natural residues) [Fluos-msR4M-L1]
staining of plaque sections, Mif-proficient versus Mif-deficient mice (plaque-associated MIF): significantly more pronounced in plaque tissue from Mif-proficient atherogenic
tissue localization after intraperitoneal injection (atherogenic Apoe−/− mice): strongly localized to intimal plaque areas, while staining in spleen, liver, and brain was marginal
staining of stable versus unstable human carotid plaques and healthy vessels [4]: pronounced staining of stable carotid plaque tissue that was higher than Fluos-msR4M-L1 positivity detected in unstable plaques and healthy vessels
